Consider five molecules from US12018059B2, “Human amylin analog polypeptides and methods of use” (Intarcia Therapeutics, Inc., priority 2018, dated 2024).

One series is described as follows: in vivo. Also on record: species or system Sprague-Dawley rats. Particulars: rat, iv, 0.033 mg/kg. Summed up: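 Peptide plasma levels measured by UPLC-MS/MS (C18, product-ion monitoring) after protein precipitation or WCX SPE, calibrated in K2EDTA/protease-inhibitor rat plasma. Dosing in non-fasted male Sprague-Dawley rats (n=3): 0.033 mg/kg over 1 h by IV or SC infusion, or 0.3 mg/kg SC bolus; sampling up to 48 h.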

The target in series [1] is T1, human calcitonin receptor (hCTR) (Homo sapiens, UniProt P30988).
T1 sequence (P30988 25-474): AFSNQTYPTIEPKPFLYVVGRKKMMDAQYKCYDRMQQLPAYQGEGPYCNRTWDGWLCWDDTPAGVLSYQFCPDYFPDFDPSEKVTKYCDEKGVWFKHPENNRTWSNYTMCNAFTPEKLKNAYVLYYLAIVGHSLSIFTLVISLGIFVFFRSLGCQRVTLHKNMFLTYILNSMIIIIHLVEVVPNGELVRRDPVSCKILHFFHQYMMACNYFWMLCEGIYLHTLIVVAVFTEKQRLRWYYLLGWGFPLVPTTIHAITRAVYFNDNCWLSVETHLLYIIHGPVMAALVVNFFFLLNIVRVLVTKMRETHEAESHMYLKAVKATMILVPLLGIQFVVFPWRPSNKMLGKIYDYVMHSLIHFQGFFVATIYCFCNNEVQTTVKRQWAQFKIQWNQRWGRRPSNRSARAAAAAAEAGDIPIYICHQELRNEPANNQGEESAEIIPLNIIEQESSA
Nature of the series: cAMP accumulation functional assay in HEK293-CNG cells expressing hCTR. The series is classed as cell-based. The following applies: presence versus absence of HSA (FIG. 2D). The protocol: In the presence of the non-specific cAMP/cGMP phosphodiesterase inhibitor 3-isobutyl-1-methylxanthine (IBMX), accumulating cAMP can be measured in vitro using common detection methods. Thus, it is possible to estimate an in vitro potency (pEC50) for peptides activating each of these receptors using fit dose-response curves for cAMP accumulation.
Cells were carried in growth media for no more than 10 passages prior to testing.
Peptides were serially diluted in the same buffer as above for each given assay condition. Two assay control solutions consisting of 50 mcM forskolin (cAMP system maximum) or assay buffer only (cAMP system minimum) were also prepared in the appropriate stimulation buffers. Five microliters of each peptide-concentration, or assay control was added to triplicate wells and incubated for thirty minutes at room temperature. During this incubation step a 4× europium labelled cAMP tracer solution and a 4× Ulight®-anti-cAMP solution (consisting of an anti-cAMP monoclonal antibody labelled with Ulight™ dye) was prepared according to the manufacturer's protocol (PerkinElmer LANCE Ultra cAMP kit). Following this incubation, 5 mcL europium labelled cAMP and 5 mcL Ulight anti-cAMP antibody was added to wells. The plate was covered with an adhesive cover to prevent evaporation and incubated for 60 minutes at room temperature in the dark. Plates were read on an Envision fluorescent plate reader (PerkinElmer).
Test values were first normalized to the forskolin induced cAMP system maximum and system minimum averaged values in Excel using the formula: (test value−system minavg)/(system maxavg−system minavg)*100. Normalized test values represent a baseline corrected percentage of the system maximum cAMP response induced by forskolin. Normalized data was analyzed from triplicate tests and used to estimate the EC50 for each peptide on each receptor. Data was fit in GraphPad Prism software (v7.04) using a 4-parameter logistic curve model: Y=Bottom+(Top−Bottom)/(1+10^((Log EC50−X))). The Hill slope was constrained to 1.0. EC50 values were converted to pEC50 values using the formula: pEC50=−Log (EC50).
Background: Changes in cAMP serve as a functional read-out for many G protein-coupled receptors.

Starred links: 1 amine or outer side, 2 acyl side, 3 side chain; linkers in the order of their positions; H or OH if unused. Positions of bridges follow the written chain, without caps; N, C: chain ends. Non-standard residues stand in square brackets, D forms with d. Residues, ends and D or L forms follow the SMILES beside them. Groups on a side chain read outwards from the residue. *: point of attachment. Docosanoyl = CCCCCCCCCCCCCCCCCCCCCC(=O)*; γGlu = O=C(O)[C@H](CCC(=O)[*:2])N[*:1]; Palmitoyl = CCCCCCCCCCCCCCCC(=O)*; AEEA = NCCOCCOCC(=O)O

What is called Vd is a proportionality between amount in the body and measured concentration, not a real space. The clearance is the volume of plasma or blood freed of the substance per unit of time. The low end stands for a low capacity for elimination, the high end for a high capacity for elimination. Broadly, the half-life is how long it takes for the measured level to halve. The low end stands for rapid decline, the high end for slow decline.

Take `CCCCCCCCCCCCCCCC(=O)N[C@@H](CCC(=O)NCCOCCOCC(=O)NCCOCCOCC(=O)N[C@@H](CCC(=O)N[C@@H](CCC(=O)NCCCC[C@H](NC(=O)[C@H](CCC(=O)O)NC(=O)[C@H](CC(N)=O)NC(=O)[C@H](C)NC(=O)[C@H](CC(C)C)NC(=O)[C@H](CCCNC(=N)N)NC(=O)[C@H](CCC(N)=O)NC(=O)[C@@H](NC(=O)[C@H](C)NC(=O)[C@@H]1CSSC[C@H](NC(=O)[C@@H](N)CO)C(=O)N[C@@H](CC(N)=O)C(=O)N[C@@H]([C@@H](C)O)C(=O)N[C@@H](CO)C(=O)N[C@@H]([C@@H](C)O)C(=O)N1)[C@@H](C)O)C(=O)N[C@@H](Cc1c[nH]cn1)C(=O)N[C@@H](CCCCN)C(=O)N[C@@H](CO)C(=O)N[C@@H](CO)C(=O)N[C@@H](CC(N)=O)C(=O)N[C@@H](CC(N)=O)C(=O)N[C@@H](Cc1ccccc1)C(=O)NCC(=O)N1CCC[C@H]1C(=O)N[C@H](C(=O)N[C@@H](CC(C)C)C(=O)N1CCC[C@H]1C(=O)N1CCC[C@H]1C(=O)N[C@H](C(=O)N[C@@H](CCCCN)C(=O)N[C@H](C(=O)NCC(=O)N[C@@H](CO)C(=O)N[C@@H](CCC(=O)O)C(=O)N[C@H](C(=O)N[C@@H](Cc1ccc(O)cc1)C(N)=O)[C@@H](C)O)C(C)C)[C@@H](C)O)[C@@H](C)CC)C(=O)O)C(=O)O)C(=O)O` [Compound A122] (H-SCNTSTCATQRLANEK([γGlu-γGlu-AEEA-AEEA-γGlu-Palmitoyl])HKSSNNFGPILPPTKVGSETY-NH2; disulfide 2-7; N-terminus assumed): in the series “in vivo”, the Vd is 0.763 L/kg, the clearance turned out to be 1.95 mL/min/kg and the half-life is 5.13 h.
In “in vivo”, `CCCCCCCCCCCCCCCC(=O)N[C@@H](CCC(=O)N[C@@H](CCC(=O)NCCCC[C@H](NC(=O)[C@H](CCC(=O)O)NC(=O)[C@H](CC(N)=O)NC(=O)[C@H](C)NC(=O)[C@H](CC(C)C)NC(=O)[C@H](CCCNC(=N)N)NC(=O)[C@H](CCC(N)=O)NC(=O)[C@@H](NC(=O)[C@H](C)NC(=O)[C@@H]1CSSC[C@H](NC(=O)[C@@H](N)CO)C(=O)N[C@@H](CC(N)=O)C(=O)N[C@@H]([C@@H](C)O)C(=O)N[C@@H](CO)C(=O)N[C@@H]([C@@H](C)O)C(=O)N1)[C@@H](C)O)C(=O)N[C@@H](Cc1c[nH]cn1)C(=O)N[C@@H](CCCCN)C(=O)N[C@@H](CO)C(=O)N[C@@H](CO)C(=O)N[C@@H](CC(N)=O)C(=O)N[C@@H](CC(N)=O)C(=O)N[C@@H](Cc1ccccc1)C(=O)NCC(=O)N1CCC[C@H]1C(=O)N[C@H](C(=O)N[C@@H](CC(C)C)C(=O)N1CCC[C@H]1C(=O)N1CCC[C@H]1C(=O)N[C@H](C(=O)N[C@@H](CCCCN)C(=O)N[C@H](C(=O)NCC(=O)N[C@@H](CO)C(=O)N[C@@H](CCC(=O)O)C(=O)N[C@H](C(=O)N[C@@H](Cc1ccc(O)cc1)C(N)=O)[C@@H](C)O)C(C)C)[C@@H](C)O)[C@@H](C)CC)C(=O)O)C(=O)O` [Compound A123] (H-SCNTSTCATQRLANEK([γGlu-γGlu-Palmitoyl])HKSSNNFGPILPPTKVGSETY-NH2; disulfide 2-7) had a Vd of 0.146 L/kg, a clearance of 0.58 mL/min/kg and a half-life of 3.2 h.
Take `CCCCCCCCCCCCCCCCCCCCCC(=O)N[C@@H](CCC(=O)N[C@@H](CCC(=O)NCCCC[C@@H](NC(=O)[C@H](CCC(=O)O)NC(=O)[C@H](CC(N)=O)NC(=O)[C@H](C)NC(=O)[C@H](CC(C)C)NC(=O)[C@H](CCCNC(=N)N)NC(=O)[C@H](CCC(N)=O)NC(=O)[C@@H](NC(=O)[C@H](C)NC(=O)[C@@H]1CSSC[C@H](NC(=O)[C@@H](N)CO)C(=O)N[C@@H](CC(N)=O)C(=O)N[C@@H]([C@@H](C)O)C(=O)N[C@@H](CO)C(=O)N[C@@H]([C@@H](C)O)C(=O)N1)[C@@H](C)O)C(=O)N[C@@H](Cc1c[nH]cn1)C(=O)N[C@@H](CCCCN)C(=O)N[C@@H](CO)C(=O)N[C@@H](CO)C(=O)N[C@@H](CC(N)=O)C(=O)N[C@@H](CC(N)=O)C(=O)N[C@@H](Cc1ccccc1)C(=O)NCC(=O)N1CCC[C@H]1C(=O)N[C@H](C(=O)N[C@@H](CC(C)C)C(=O)N1CCC[C@H]1C(=O)N1CCC[C@H]1C(=O)N[C@H](C(=O)N[C@@H](CCCCN)C(=O)N[C@H](C(=O)NCC(=O)N[C@@H](CO)C(=O)N[C@@H](CCC(=O)O)C(=O)N[C@H](C(=O)N[C@@H](Cc1ccc(O)cc1)C(N)=O)[C@@H](C)O)C(C)C)[C@@H](C)O)[C@@H](C)CC)C(=O)O)C(=O)O` [Compound A124] (H-SCNTSTCATQRLANE[dK]([γGlu-γGlu-Docosanoyl])HKSSNNFGPILPPTKVGSETY-NH2; disulfide 2-7): in “in vivo”, the Vd is 0.273 L/kg, the clearance worked out at 1.72 mL/min/kg and the half-life was 2.14 h.
In the case of `CCCCCCCCCCCCCCCC(=O)N[C@@H](CCC(=O)NCCCC[C@H](NC(=O)[C@H](CCC(=O)O)NC(=O)[C@H](CC(N)=O)NC(=O)[C@H](C)NC(=O)[C@H](CC(C)C)NC(=O)[C@H](CCCNC(=N)N)NC(=O)[C@H](CCC(N)=O)NC(=O)[C@@H](NC(=O)[C@H](C)NC(=O)[C@@H]1CSSC[C@H](NC(=O)[C@@H](N)CO)C(=O)N[C@@H](CC(N)=O)C(=O)N[C@@H]([C@@H](C)O)C(=O)N[C@@H](CO)C(=O)N[C@@H]([C@@H](C)O)C(=O)N1)[C@@H](C)O)C(=O)N[C@@H](Cc1c[nH]cn1)C(=O)N[C@@H](CCCCN)C(=O)N[C@@H](CO)C(=O)N[C@@H](CO)C(=O)N[C@@H](CC(N)=O)C(=O)N[C@@H](CC(N)=O)C(=O)N[C@@H](Cc1ccccc1)C(=O)NCC(=O)N1CCC[C@H]1C(=O)N[C@H](C(=O)N[C@@H](CC(C)C)C(=O)N1CCC[C@H]1C(=O)N1CCC[C@H]1C(=O)N[C@H](C(=O)N[C@@H](CCCCN)C(=O)N[C@H](C(=O)NCC(=O)N[C@@H](CO)C(=O)N[C@@H](CCC(=O)O)C(=O)N[C@H](C(=O)N[C@@H](Cc1ccc(O)cc1)C(N)=O)[C@@H](C)O)C(C)C)[C@@H](C)O)[C@@H](C)CC)C(=O)O` [Compound A125] (H-SCNTSTCATQRLANEK([γGlu-Palmitoyl])HKSSNNFGPILPPTKVGSETY-NH2; disulfide 2-7), in the series “in vivo”, the Vd was 0.211 L/kg, the clearance came to 3.56 mL/min/kg and the half-life was 0.963 h.
For `CC[C@H](C)[C@H](NC(=O)[C@H](C)NC(=O)[C@@H](NC(=O)[C@H](CCC(N)=O)NC(=O)[C@@H]1CCCN1C(=O)[C@H](Cc1ccccc1)NC(=O)[C@@H](NC(=O)[C@H](Cc1c[nH]cn1)NC(=O)[C@H](Cc1ccccc1)NC(=O)[C@H](CCCCN)NC(=O)[C@H](CC(N)=O)NC(=O)[C@H](Cc1ccccc1)NC(=O)[C@H](CC(=O)O)NC(=O)[C@H](CCC(N)=O)NC(=O)[C@@H](NC(=O)[C@H](Cc1ccc(O)cc1)NC(=O)[C@@H](NC(=O)CNC(=O)[C@H](CC(C)C)NC(=O)[C@H](CCSC)NC(=O)[C@@H]1CSSC[C@H](N)C(=O)NCC(=O)N[C@@H](CC(N)=O)C(=O)N[C@@H](CC(C)C)C(=O)N[C@@H](CO)C(=O)N[C@@H]([C@@H](C)O)C(=O)N1)[C@@H](C)O)[C@@H](C)O)[C@@H](C)O)[C@@H](C)O)C(=O)NCC(=O)N[C@H](C(=O)NCC(=O)N[C@@H](C)C(=O)N1CCC[C@H]1C(N)=O)C(C)C` [hCalcitonin, human calcitonin, reference compound], the “effect of HSA on potency at hCTR” value in series [1] is listed as “unaffected by the presence of HSA”.
